Reference: ChEMBL document CHEMBL4507285, “Data for DCP probe MRL-SYKi” (2021)

Columns and labels:
[1] = molecular target: Receptor tyrosine-protein kinase erbB-2 (Homo sapiens) (UniProt P04626); details: Compound concentration 100.0 nM
[2] = molecular target: Serine/threonine-protein kinase pim-2 (Homo sapiens) (UniProt Q9P1W9); details: Compound concentration 100.0 nM
[3] = molecular target: Activin receptor type-1-like (Homo sapiens) (UniProt P37023); details: Compound concentration 100.0 nM
[4] = molecular target: Serine/threonine-protein kinase Sgk1 (Homo sapiens) (UniProt O00141); details: Compound concentration 100.0 nM
[5] = molecular target: Testis-specific serine/threonine-protein kinase 3 (Homo sapiens) (UniProt Q96PN8); details: Compound concentration 100.0 nM
[6] = molecular target: Mitogen-activated protein kinase 8 (Homo sapiens) (UniProt P45983); details: Compound concentration 100.0 nM
[7] = molecular target: Serine/threonine-protein kinase Sgk2 (Homo sapiens) (UniProt Q9HBY8); details: Compound concentration 100.0 nM
[8] = molecular target: Serine/threonine-protein kinase 16 (Homo sapiens) (UniProt O75716); details: Compound concentration 100.0 nM
[9] = molecular target: Casein kinase I isoform gamma-3 (Homo sapiens) (UniProt Q9Y6M4); details: Compound concentration 100.0 nM
Casein kinase I isoform gamma-3 (Homo sapiens), sequence (Q9Y6M4 whole entry, looked up, canonical isoform): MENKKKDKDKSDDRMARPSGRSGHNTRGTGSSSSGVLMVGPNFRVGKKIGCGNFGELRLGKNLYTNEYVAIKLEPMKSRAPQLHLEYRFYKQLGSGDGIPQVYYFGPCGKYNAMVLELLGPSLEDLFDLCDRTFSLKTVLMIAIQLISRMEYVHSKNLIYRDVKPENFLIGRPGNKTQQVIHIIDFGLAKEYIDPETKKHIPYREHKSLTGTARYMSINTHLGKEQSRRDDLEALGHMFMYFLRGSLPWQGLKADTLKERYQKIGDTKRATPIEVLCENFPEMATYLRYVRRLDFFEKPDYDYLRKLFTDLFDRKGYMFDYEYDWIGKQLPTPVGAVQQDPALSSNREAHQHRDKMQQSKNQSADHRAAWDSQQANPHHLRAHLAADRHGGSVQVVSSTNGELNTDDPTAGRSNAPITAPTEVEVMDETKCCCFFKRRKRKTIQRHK

[10] = molecular target: Mitogen-activated protein kinase 7 (Homo sapiens) (UniProt Q13164); details: Compound concentration 100.0 nM
Mitogen-activated protein kinase 7 (Homo sapiens), sequence (Q13164 2-816 limits assumed): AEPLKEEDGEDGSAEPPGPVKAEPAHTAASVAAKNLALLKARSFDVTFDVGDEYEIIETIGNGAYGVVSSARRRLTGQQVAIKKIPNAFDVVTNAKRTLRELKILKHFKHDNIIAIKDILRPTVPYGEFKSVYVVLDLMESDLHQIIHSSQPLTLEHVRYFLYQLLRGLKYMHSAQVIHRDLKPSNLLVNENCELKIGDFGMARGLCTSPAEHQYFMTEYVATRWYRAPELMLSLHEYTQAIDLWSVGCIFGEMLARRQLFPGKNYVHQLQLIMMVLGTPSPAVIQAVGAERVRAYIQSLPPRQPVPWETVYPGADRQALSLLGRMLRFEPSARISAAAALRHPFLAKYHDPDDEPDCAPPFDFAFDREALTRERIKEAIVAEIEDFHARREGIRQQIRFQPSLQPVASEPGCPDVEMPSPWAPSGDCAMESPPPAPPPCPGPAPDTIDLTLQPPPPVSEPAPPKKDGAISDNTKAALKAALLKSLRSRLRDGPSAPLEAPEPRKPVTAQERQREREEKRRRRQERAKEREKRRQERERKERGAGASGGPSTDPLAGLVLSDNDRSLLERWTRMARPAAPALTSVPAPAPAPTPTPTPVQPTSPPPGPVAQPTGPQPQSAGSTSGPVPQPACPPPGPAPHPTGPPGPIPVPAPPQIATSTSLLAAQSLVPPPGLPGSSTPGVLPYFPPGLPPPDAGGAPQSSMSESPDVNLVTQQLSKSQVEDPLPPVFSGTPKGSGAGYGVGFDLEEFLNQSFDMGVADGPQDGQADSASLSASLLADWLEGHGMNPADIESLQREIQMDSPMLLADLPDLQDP

[11] = molecular target: RAC-alpha serine/threonine-protein kinase (Homo sapiens) (UniProt P31749); details: Compound concentration 100.0 nM
RAC-alpha serine/threonine-protein kinase (Homo sapiens), sequence (P31749 whole entry): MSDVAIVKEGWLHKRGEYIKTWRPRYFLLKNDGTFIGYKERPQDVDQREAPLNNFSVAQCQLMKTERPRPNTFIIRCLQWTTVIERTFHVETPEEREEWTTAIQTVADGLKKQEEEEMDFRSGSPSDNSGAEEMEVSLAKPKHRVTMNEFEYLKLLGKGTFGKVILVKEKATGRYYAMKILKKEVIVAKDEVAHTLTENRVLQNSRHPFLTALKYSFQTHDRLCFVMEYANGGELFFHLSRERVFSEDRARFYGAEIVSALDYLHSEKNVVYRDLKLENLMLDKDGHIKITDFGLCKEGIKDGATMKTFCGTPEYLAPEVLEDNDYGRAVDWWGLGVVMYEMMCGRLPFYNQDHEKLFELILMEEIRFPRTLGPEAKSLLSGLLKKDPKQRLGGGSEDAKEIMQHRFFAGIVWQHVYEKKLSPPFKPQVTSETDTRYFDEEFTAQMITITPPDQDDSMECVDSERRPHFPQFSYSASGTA

[12] = molecular target: 5-hydroxytryptamine receptor 1B (Homo sapiens) (UniProt P28222); details: Compound concentration 10.0 uM
[13] = molecular target: Rhodopsin kinase GRK1 (Homo sapiens) (UniProt Q15835); details: Compound concentration 100.0 nM
[14] = molecular target: 5-hydroxytryptamine receptor 3A (Homo sapiens) (UniProt P46098); details: Compound concentration 10.0 uM
[15] = molecular target: Serine/threonine-protein kinase PAK 6 (Homo sapiens) (UniProt Q9NQU5); details: Compound concentration 100.0 nM
Serine/threonine-protein kinase PAK 6 (Homo sapiens), sequence (Q9NQU5 whole entry, looked up): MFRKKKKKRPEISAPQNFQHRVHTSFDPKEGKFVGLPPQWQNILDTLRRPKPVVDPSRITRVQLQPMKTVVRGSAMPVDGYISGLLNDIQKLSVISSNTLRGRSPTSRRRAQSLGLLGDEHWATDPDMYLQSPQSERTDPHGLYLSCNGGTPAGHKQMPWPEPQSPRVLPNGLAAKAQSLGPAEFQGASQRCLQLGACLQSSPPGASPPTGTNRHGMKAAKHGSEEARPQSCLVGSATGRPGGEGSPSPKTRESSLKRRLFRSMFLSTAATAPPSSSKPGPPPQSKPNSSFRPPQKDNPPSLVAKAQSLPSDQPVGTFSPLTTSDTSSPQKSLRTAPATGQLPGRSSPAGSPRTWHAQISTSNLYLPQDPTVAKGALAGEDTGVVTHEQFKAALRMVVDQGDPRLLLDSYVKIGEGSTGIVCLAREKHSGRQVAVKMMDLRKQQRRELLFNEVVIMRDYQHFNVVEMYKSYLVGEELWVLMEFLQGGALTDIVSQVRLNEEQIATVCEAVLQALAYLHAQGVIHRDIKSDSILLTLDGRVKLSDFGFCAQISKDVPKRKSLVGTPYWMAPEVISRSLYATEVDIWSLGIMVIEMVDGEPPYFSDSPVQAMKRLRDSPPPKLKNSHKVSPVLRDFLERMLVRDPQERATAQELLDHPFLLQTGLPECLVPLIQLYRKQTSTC

[16] = molecular target: RAC-beta serine/threonine-protein kinase (Homo sapiens) (UniProt P31751); details: Compound concentration 100.0 nM
[17] = molecular target: Wee1-like protein kinase 2 (Homo sapiens) (UniProt P0C1S8); details: Compound concentration 100.0 nM
[18] = molecular target: Serine/threonine-protein kinase 32B (Homo sapiens) (UniProt Q9NY57); details: Compound concentration 100.0 nM
[19] = molecular target: Inhibitor of nuclear factor kappa-B kinase subunit beta (Homo sapiens) (UniProt O14920); details: Compound concentration 100.0 nM
[20] = molecular target: Macrophage-stimulating protein receptor (Homo sapiens) (UniProt Q04912); details: Compound concentration 100.0 nM
[21] = molecular target: Tyrosine-protein kinase receptor Tie-1 (Homo sapiens) (UniProt P35590); details: Compound concentration 100.0 nM
[22] = molecular target: Vascular endothelial growth factor receptor 2 (Homo sapiens) (UniProt P35968); details: Compound concentration 100.0 nM
[23] = molecular target: Tyrosine-protein kinase ABL2 (Homo sapiens) (UniProt P42684); details: Compound concentration 100.0 nM
[24] = molecular target: Megakaryocyte-associated tyrosine-protein kinase (Homo sapiens) (UniProt P42679); details: Compound concentration 100.0 nM
[25] = molecular target: Cyclin-dependent kinase-like 2 (Homo sapiens) (UniProt Q92772); details: Compound concentration 100.0 nM
[26] = molecular target: Muscarinic acetylcholine receptor M5 (Homo sapiens) (UniProt P08912); details: Compound concentration 10.0 uM
[27] = molecular target: Receptor tyrosine-protein kinase erbB-3 (Homo sapiens) (UniProt P21860); details: Compound concentration 100.0 nM
[28] = molecular target: Cyclin-dependent kinase 7 (Homo sapiens) (UniProt P50613); details: Compound concentration 100.0 nM
[29] = molecular target: Rho-associated protein kinase 2 (Homo sapiens) (UniProt O75116); details: Compound concentration 100.0 nM
[30] = molecular target: Casein kinase I isoform alpha-like (Homo sapiens) (UniProt Q8N752); details: Compound concentration 100.0 nM
[31] = molecular target: Serine/threonine-protein kinase DCLK1 (Homo sapiens) (UniProt O15075); details: Compound concentration 100.0 nM
[32] = molecular target: Cyclin-dependent kinase 11B (Homo sapiens) (UniProt P21127); details: Compound concentration 100.0 nM
[33] = molecular target: Muscle, skeletal receptor tyrosine-protein kinase (Homo sapiens) (UniProt O15146); details: Compound concentration 100.0 nM
[34] = molecular target: Tyrosine-protein kinase JAK2 (Homo sapiens, UniProt O60674); details: Compound concentration 100.0 nM
[35] = molecular target: Dual serine/threonine and tyrosine protein kinase (Homo sapiens) (UniProt Q6XUX3); details: Compound concentration 100.0 nM
[36] = molecular target: Bone morphogenetic protein receptor type-1B (Homo sapiens) (UniProt O00238); details: Compound concentration 100.0 nM
[37] = molecular target: Rhodopsin kinase GRK7 (Homo sapiens) (UniProt Q8WTQ7); details: Compound concentration 100.0 nM
[38] = molecular target: Mitogen-activated protein kinase 10 (Homo sapiens) (UniProt P53779); details: Compound concentration 100.0 nM
[39] = molecular target: Phosphatidylinositol 4,5-bisphosphate 3-kinase catalytic subunit delta isoform (Homo sapiens) (UniProt O00329); details: Compound concentration 100.0 nM
Phosphatidylinositol 4,5-bisphosphate 3-kinase catalytic subunit delta isoform (Homo sapiens), sequence (O00329 whole entry, canonical isoform): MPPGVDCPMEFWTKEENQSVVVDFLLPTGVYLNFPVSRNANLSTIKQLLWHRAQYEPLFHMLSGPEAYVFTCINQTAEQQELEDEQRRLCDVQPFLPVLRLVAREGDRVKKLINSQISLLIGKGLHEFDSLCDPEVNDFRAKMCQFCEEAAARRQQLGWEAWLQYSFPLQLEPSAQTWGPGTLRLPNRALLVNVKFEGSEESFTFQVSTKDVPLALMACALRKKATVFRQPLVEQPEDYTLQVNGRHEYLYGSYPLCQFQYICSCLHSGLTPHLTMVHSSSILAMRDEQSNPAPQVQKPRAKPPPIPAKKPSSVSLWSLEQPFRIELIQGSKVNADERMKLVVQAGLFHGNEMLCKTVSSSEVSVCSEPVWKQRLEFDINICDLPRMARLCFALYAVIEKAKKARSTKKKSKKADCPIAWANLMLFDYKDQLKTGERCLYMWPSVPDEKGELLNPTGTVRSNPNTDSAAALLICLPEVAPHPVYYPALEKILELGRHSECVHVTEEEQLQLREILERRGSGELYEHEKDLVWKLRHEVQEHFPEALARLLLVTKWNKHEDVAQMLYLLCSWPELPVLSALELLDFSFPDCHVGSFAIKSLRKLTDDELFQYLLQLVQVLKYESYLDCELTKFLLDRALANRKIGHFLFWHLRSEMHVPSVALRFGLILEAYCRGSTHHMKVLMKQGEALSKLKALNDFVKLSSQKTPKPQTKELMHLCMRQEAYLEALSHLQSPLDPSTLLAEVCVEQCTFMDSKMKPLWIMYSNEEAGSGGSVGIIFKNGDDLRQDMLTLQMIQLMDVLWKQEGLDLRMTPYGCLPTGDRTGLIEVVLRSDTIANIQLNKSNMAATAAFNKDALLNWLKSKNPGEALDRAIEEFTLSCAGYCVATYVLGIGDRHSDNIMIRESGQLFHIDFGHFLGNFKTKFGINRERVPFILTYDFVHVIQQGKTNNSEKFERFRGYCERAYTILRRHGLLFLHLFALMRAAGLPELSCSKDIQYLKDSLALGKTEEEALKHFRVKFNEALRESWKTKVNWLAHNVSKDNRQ

[40] = test system: Tyrosine-protein kinase ABL1 (Homo sapiens), P00519 [Q252H]; details: Compound concentration 100.0 nM
[41] = molecular target: Serine/threonine-protein kinase D2 (Homo sapiens) (UniProt Q9BZL6); details: Compound concentration 100.0 nM
[42] = molecular target: Tyrosine-protein kinase Srms (Homo sapiens) (UniProt Q9H3Y6); details: Compound concentration 100.0 nM
Tyrosine-protein kinase Srms (Homo sapiens), sequence (Q9H3Y6 whole entry): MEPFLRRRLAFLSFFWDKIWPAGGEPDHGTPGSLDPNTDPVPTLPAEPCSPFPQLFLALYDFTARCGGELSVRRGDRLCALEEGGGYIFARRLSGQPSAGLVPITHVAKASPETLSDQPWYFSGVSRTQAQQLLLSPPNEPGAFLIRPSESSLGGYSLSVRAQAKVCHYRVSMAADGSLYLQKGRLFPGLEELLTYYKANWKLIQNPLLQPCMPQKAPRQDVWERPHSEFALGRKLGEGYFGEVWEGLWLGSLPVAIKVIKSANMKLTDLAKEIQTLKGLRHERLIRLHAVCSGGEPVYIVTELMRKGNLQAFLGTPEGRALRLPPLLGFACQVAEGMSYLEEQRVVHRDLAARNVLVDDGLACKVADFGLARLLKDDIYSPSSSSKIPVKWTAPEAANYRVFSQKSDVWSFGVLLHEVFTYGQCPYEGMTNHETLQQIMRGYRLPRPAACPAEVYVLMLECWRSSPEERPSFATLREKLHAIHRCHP

[43] = test system: Receptor-type tyrosine-protein kinase FLT3 (Homo sapiens), P36888 [D835H]; details: Compound concentration 100.0 nM
[44] = molecular target: Ephrin type-B receptor 1 (Homo sapiens) (UniProt P54762); details: Compound concentration 100.0 nM
Ephrin type-B receptor 1 (Homo sapiens), sequence (P54762 whole entry): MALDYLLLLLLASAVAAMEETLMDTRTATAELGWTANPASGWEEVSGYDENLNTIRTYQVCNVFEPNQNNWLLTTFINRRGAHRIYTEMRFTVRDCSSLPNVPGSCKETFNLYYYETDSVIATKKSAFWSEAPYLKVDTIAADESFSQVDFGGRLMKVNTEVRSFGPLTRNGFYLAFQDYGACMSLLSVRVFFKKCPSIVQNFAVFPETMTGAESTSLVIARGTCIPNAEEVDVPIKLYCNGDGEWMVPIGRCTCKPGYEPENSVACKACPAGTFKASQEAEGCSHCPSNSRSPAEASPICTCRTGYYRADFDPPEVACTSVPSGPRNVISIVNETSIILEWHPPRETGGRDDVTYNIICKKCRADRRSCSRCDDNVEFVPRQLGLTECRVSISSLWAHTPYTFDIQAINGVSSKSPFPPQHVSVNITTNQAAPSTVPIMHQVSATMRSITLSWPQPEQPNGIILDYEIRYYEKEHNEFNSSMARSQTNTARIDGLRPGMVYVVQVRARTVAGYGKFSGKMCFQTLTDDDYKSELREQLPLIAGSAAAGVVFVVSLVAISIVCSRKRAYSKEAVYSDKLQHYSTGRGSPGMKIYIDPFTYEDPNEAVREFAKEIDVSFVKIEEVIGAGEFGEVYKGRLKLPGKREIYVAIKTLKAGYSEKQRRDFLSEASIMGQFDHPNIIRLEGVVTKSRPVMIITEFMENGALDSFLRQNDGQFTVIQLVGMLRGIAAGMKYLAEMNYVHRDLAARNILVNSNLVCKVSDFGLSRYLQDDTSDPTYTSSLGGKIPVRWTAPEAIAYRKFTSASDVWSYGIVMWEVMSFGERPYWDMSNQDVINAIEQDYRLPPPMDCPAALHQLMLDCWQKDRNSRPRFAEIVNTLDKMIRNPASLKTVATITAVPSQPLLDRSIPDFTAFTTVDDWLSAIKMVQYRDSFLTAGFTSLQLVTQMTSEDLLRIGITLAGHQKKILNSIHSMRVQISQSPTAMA

[45] = molecular target: Serine/threonine-protein kinase Nek1 (Homo sapiens) (UniProt Q96PY6); details: Compound concentration 100.0 nM
Rattus norvegicus = species: Rattus norvegicus; details: Compound concentration 10.0 uM

SMILES: Cc1ccc(-c2cnc([C@@]3(O)CC[C@H](C(=O)O)C(C)(C)C3)s2)cc1Nc1cccc(C(F)(F)F)n1 [MRL-SYKi-NC]
- residual activity [1]: 100%
- residual activity [2]: 87.9%
- residual activity [3]: 100%
- residual activity [4]: 64.9%
- residual activity [5]: 100%
- residual activity [6]: 63.7%
- residual activity [7]: 57.3%
- residual activity [8]: 78%
- residual activity [9]: 89.1%
- residual activity [10]: 100%
- residual activity [11]: 92.3%
- inhibition [12]: 20.2%
- residual activity [13]: 82.1%
- inhibition [14]: -1.96%
- residual activity [15]: 70.5%
- residual activity [16]: 100%
- residual activity [17]: 89.5%
- residual activity [18]: 63.9%
- residual activity [19]: 43.1%
- residual activity [20]: 100%
- residual activity [21]: 86.8%
- residual activity [22]: 100%
- residual activity [23]: 98.3%
- residual activity [24]: 74.6%
- residual activity [25]: 94.3%
- inhibition [26]: -4.28%
- residual activity [27]: 100%
- residual activity [28]: 86.2%
- residual activity [29]: 85.3%
- residual activity [30]: 91.9%
- residual activity [31]: 91.3%
- residual activity [32]: 95.4%
- residual activity [33]: 93.6%
- residual activity [34]: 96.6%
- residual activity [35]: 100%
- residual activity [36]: 92.3%
- residual activity [37]: 75.4%
- residual activity [38]: 37.5%
- residual activity [39]: 98.8%
- residual activity [40]: 75.4%
- residual activity [41]: 100%
- residual activity [42]: 100%
- residual activity [43]: 100%
- residual activity [44]: 98.7%
- residual activity [45]: 67.1%
- inhibition (Rattus norvegicus): 71.8%

SMILES: Cc1cc(Nc2nccc(C)n2)cc(-c2cnc([C@@]3(O)CC[C@H](C(=O)O)C(C)(C)C3)s2)c1 [MRL-SYKi]
- residual activity [1]: 89.6%
- residual activity [2]: 100%
- residual activity [3]: 66.5%
- residual activity [4]: 100%
- residual activity [5]: 100%
- residual activity [6]: 46.6%
- residual activity [7]: 100%
- residual activity [8]: 100%
- residual activity [9]: 99.9%
- residual activity [10]: 83.6%
- residual activity [11]: 100%
- inhibition [12]: 11.6%
- residual activity [13]: 71.7%
- inhibition [14]: -3.85%
- residual activity [15]: 100%
- residual activity [16]: 100%
- residual activity [17]: 100%
- residual activity [18]: 100%
- residual activity [19]: 100%
- residual activity [20]: 65.9%
- residual activity [21]: 68.1%
- residual activity [22]: 100%
- residual activity [23]: 85.8%
- residual activity [24]: 100%
- residual activity [25]: 89.6%
- inhibition [26]: 0.943%
- residual activity [27]: 66.6%
- residual activity [28]: 100%
- residual activity [29]: 85.9%
- residual activity [30]: 100%
- residual activity [31]: 64.1%
- residual activity [32]: 93.3%
- residual activity [33]: 100%
- residual activity [34]: 45.5%
- residual activity [35]: 100%
- residual activity [36]: 100%
- residual activity [37]: 100%
- residual activity [38]: 67.7%
- residual activity [39]: 100%
- residual activity [40]: 86.9%
- residual activity [41]: 96.1%
- residual activity [42]: 81.2%
- residual activity [43]: 70.7%
- residual activity [44]: 100%
- residual activity [45]: 100%
- inhibition (Rattus norvegicus): 3.63%
